Values quoted from earlier work as cited in patent publication US20100267624A1 (priority 2007, published 2010).
Structures can show the parent of a compound that is named as a salt.

solubility in organic solvents (organic solvents): poorly soluble
solubility in water (water): very soluble
SMILES: CN[C@H](CC(C)C)C(=O)N[C@H]1C(=O)N[C@@H](CC(N)=O)C(=O)N[C@H]2C(=O)N[C@H]3C(=O)N[C@H](C(=O)N[C@H](C(=O)O)c4cc(O)cc(O)c4-c4cc3ccc4O)[C@H](O)c3ccc(c(Cl)c3)Oc3cc2cc(c3O[C@@H]2O[C@H](CO)[C@@H](O)[C@H](O)[C@H]2O[C@H]2C[C@](C)(N)[C@H](O)[C@H](C)O2)Oc2ccc(cc2Cl)[C@H]1O [Vancomycin Hydrochloride]
